According to publication PMC11206678, “Peptide-Alkoxyamine Drugs: An Innovative Approach to Fight Schistosomiasis: “Digging Their Graves with Their Forks”” (Pathogens, 2024):
Entries after “also recorded” stand apart in the source; their conditions may differ. Where a name gives a salt, the structure may show the parent alone.

Tests used:
[1] = tested on: Schistosoma mansoni adult worms; test: Viability of Schistosoma mansoni adult worms in vitro; assay type: cell-based, Schistosoma mansoni NMRI strain; conditions: 100 μg/mL, 37 °C; for Time to Kill 50% of Parasites / Time to Kill 100% of Parasites: adult worms in RPMI 1640/Tween 80/DMSO, observed up to 72 h, duplicate wells; for Activity/toxicity towards schistosomes (in words): adult worms
Description: Experiments on the viability of Schistosoma mansoni adult worms. In vitro tests were performed on Schistosoma mansoni NMRI strains. This parasite is lab maintained on Biomphalaria glabrata (BRE strain) as intermediate mollusc host and Golden Hamster (Janvier Labs, Le Genest-Saint-Isle, France) as definitive vertebrate host. Methods, for molluscs’ and hamsters’ infection and for parasite recovery, were previously described. Adult worms were recovered by hepatic perfusion technique between 42 and 47 days post hamster exposition to parasite larvae. Worms were carefully collected and disposed in 12-well Falcon® plate containing 2 mL of RPMI 1640 (supplemented with L-glutamine and Hepes 25 mM). The plates containing a minimum of 15 worms by well were then placed in an incubator chamber at 37 °C and 5% CO2. The worms sex ratio was almost balanced in each well. The drug was first dissolved in DMSO (Sigma-Aldrich) to give a 100 mg/mL mother solution. Then the stock solution was complemented with Tween 80 and RPMI to obtain the following final ratio dilution: RPMI 1640/Tween 80/DMSO and 1000/0.95/3.8, v/v/v.
All molecules were tested at a final concentration of 100 µg/mL and 10 µg/mL. A negative control consisted in adding the same RPMI 1640/Tween 80/DMSO solution, but without any drug and a positive control consisted in adding praziquantel. All molecules and control were performed in duplicates of well. The worm viability was checked after 1, 2, 3, 4, 5, 6, 7, 8, 24, 48, and 72 h after adding the molecule.

[2] = Homolysis kinetics of alkoxyamines by EPR (growth of nitroxide); assay type: physicochemical; conditions: mixture of diastereoisomers; for Homolysis rate constant kd: 0.1 mM alkoxyamine, O2 as alkyl radical scavenger; for Activation energy Ea: by Equation (2) from kd and T, A = 2.4 10^14 s^−1
Description: Preparation of alkoxyamines and reference samples. All reagents including anhydrous solvents used for the chemical synthesis were purchased from commercially available sources such as Merck, TCI, and Fluorochem, and were used without further purification. All air and/or water-sensitive reactions were carried out under an argon atmosphere with dry solvents using standard syringe-cannula/septa techniques. Routine monitoring of reactions was performed using Merck Silica gel 60 F254, aluminum-supported TLC plates; spots were visualized using UV light and ethanolic acidic para-anisaldehyde solution or ethanolic phosphomolybdic solution, followed by heating. Purifications by means of column chromatography were performed with Silica gel 60 (230–400 mesh). ^1H, ^13C, and ^19F NMR spectra were obtained in CDCl3, MeOD (with residual H2O), D2O, DMSO-d6, or C6D6 solutions on by using Bruker AC400 (400 MHz) and Bruker AC300 (300 MHz) spectrometers. High-resolution mass spectra (HRMS) have been performed using a SYNAPT G2 HDMS (Waters) mass spectrometer equipped with a pneumatically assisted atmospheric pressure ionization (API) source. The sample was ionized in positive electrospray mode under the following conditions: electrospray voltage: 2.8 kV; port voltage: 20 V; Nebulizing gas flow rate (nitrogen): 100 L/h or in negative electrospray mode under the following conditions: electrospray voltage: −2.27 kV; port voltage: −20 V; Nebulizing gas flow rate (nitrogen): 100 L/h. The mass spectra (MS) were obtained with a time-of-flight (TOF) analyzer. The exact mass measurements were carried out in triplicate with external calibration. Homolysis constants were measured by EPR on an EMX Bruker spectrometer from 10^−4 M samples in tertbutyl benzene or in a mixture of H2O-nPrOH (1:1; v:v).
Kinetic experiments. Kinetics of A1–A7 (Scheme 2) for series L and D are performed by monitoring the growth of nitroxide by Electron Paramagnetic Resonance (X-band EMX Bruker machine) in tert-butylbenzene and a water/n-PrOH (for a good solubility of the alkoxyamine) as solvents and using O2 as alkyl radical scavenger to suppress the back reaction (kc in Scheme 2) as already reported. Homolysis rate constants kd are given by Equation (1) ([nitroxide]∞ = [alkoxyamine]0 = 0.1 mM, see Table S1) and the subsequent activation energies Ea given by Equation (2). (1) lnnitroxide∞−nitroxidet/nitroxide∞=−kd·t, (2) Ea=−RTlnkd/A.

[3] = C–ON bond homolysis in t-BuPh, EPR, T (°C): A1L 128.0, A3L 125.0, A5L 130.0, A6L 125, A7L 126.5, A1D 122.5, A3D 119.8, A5D 130
[4] = C–ON bond homolysis in water/n-PrOH v/v 1:1, EPR, T (°C): A1L 95.1, A3L 94.5, A4L 94.6, A5L 94.0, A6L 94.8, A7L 94.3, A1D 93.5, A3D 92.6, A4D 95.0, A5D 94.6

Compound	Time to Kill 50% of Parasites [1] [h]	Time to Kill 100% of Parasites [1] [h]	Activity/toxicity towards schistosomes (in words) [1]	Homolysis rate constant kd [2, 3]	Homolysis rate constant kd [2, 4]	Activation energy Ea ([2]; in t-BuPh) [kcal/mol]	Activation energy Ea ([2]; in water/n-PrOH v/v 1:1) [kcal/mol]	Time to Kill 50% of Parasites ([1]; listed as praziquantel) [h]
4-(((S)-1-(((S)-1-(((S)-1-carboxy-2-phenylethyl)amino)-3-methyl-1-oxobutan-2-yl)amino)-1-oxo-3-phenylpropan-2-yl)amino)-4-oxobutanoic acid [P10L]	6	24	some activity towards schistosomes					
CC(ON1C(C)(C)CCCC1(C)C)c1ccc(NC(=O)[C@@H](Cc2ccccc2)NC(=O)OC(C)(C)C)cc1 (mixture of isomers) [A1D, tert-butyl ((2R)-1-oxo-3-phenyl-1-((4-(1-((2,2,6,6-tetramethylpiperidin-1-yl)oxy)ethyl)phenyl)amino)propan-2-yl)carbamate]				9.6 10^−4 s^−1	1.0 10^−4 s^−1	31.6	30.83	
CC(ON1C(C)(C)CCCC1(C)C)c1ccc(NC(=O)[C@H](Cc2ccccc2)NC(=O)OC(C)(C)C)cc1 (mixture of isomers) [A1L, tert-butyl ((2S)-1-oxo-3-phenyl-1-((4-(1-((2,2,6,6-tetramethylpiperidin-1-yl)oxy)ethyl)phenyl)amino)propan-2-yl)carbamate]				11.0 10^−4 s^−1	1.5 10^−4 s^−1	31.81	30.69	
CC(ON1C(C)(C)CCCC1(C)C)c1ccc(NC(=O)[C@H](Cc2ccccc2)NC(=O)[C@@H](NC(=O)[C@H](Cc2ccccc2)NC(=O)OC(C)(C)C)C(C)C)cc1 (stereo partly drawn) [A3L, tert-butyl ((2S)-1-(((2S)-3-methyl-1-oxo-1-(((2S)-1-oxo-3-phenyl-1-((4-(1-((2,2,6,6-tetramethylpiperidin-1-yl)oxy)ethyl)phenyl)amino)propan-2-yl)amino)butan-2-yl)amino)-1-oxo-3-phenylpropan-2-yl)carbamate]			inactive; also recorded: non-activity	8.4 10^−4 s^−1	1.8 10^−4 s^−1	31.79	30.78	
CC(ON1C(C)(C)CCCC1(C)C)c1ccc(NC(=O)[C@H](Cc2ccccc2)NC(=O)[C@@H](NC(=O)[C@@H](N)Cc2ccccc2)C(C)C)cc1.O=C(O)C(F)(F)F (stereo partly drawn) [A4L, (2S)-1-(((2S)-3-methyl-1-oxo-1-(((2S)-1-oxo-3-phenyl-1-((4-(1-((2,2,6,6-tetramethylpiperidin-1-yl)oxy)ethyl)phenyl)amino)propan-2-yl)amino)butan-2-yl)amino)-1-oxo-3-phenylpropan-2-aminium trifluoroacetate]	2	24	most efficient molecules		1.0 10^−4 s^−1		30.9	
CC(ON1C(C)(C)CCCC1(C)C)c1ccc(NC(=O)[C@H](Cc2ccccc2)NC(=O)[C@@H](NC(=O)[C@@H](N)Cc2ccccc2)C(C)C)cc1 (stereo partly drawn) [A5L, (2S)-2-((S)-2-amino-3-phenylpropanamido)-3-methyl-N-((2S)-1-oxo-3-phenyl-1-((4-(1-((2,2,6,6-tetramethylpiperidin-1-yl)oxy)ethyl)phenyl)amino)propan-2-yl)butanamide]	2	7	most efficient molecules	18 10^−4 s^−1	1.3 10^−4 s^−1	31.57	30.66	
CC(ON1C(C)(C)CCCC1(C)C)c1ccc(NC(=O)[C@H](Cc2ccccc2)NC(=O)[C@@H](NC(=O)[C@H](Cc2ccccc2)NC(=O)CCC(=O)OCc2ccccc2)C(C)C)cc1 (stereo partly drawn) [A6L, Benzyl 4-(((2S)-1-(((2S)-3-methyl-1-oxo-1-(((2S)-1-oxo-3-phenyl-1-((4-(1-((2,2,6,6-tetramethylpiperidin-1-yl)oxy)ethyl)phenyl)amino)propan-2-yl)amino)butan-2-yl)amino)-1-oxo-3-phenylpropan-2-yl)amino)-4-oxobutanoate]	24	48	less active; also recorded: lower activity	11.0 10^−4 s^−1	1.1 10^−4 s^−1	31.57	30.86	
O=C(C1CCCCC1)N1CC(=O)N2CCc3ccccc3C2C1 (stereo not drawn) [PZQ, praziquantel, reference compound]	1	1						< 1
O=C(O)C(F)(F)F [TFA, reference compound]	7	24						
(S)-1-(((S)-1-(((S)-1-((4-ethylphenyl)amino)-1-oxo-3-phenylpropan-2-yl)amino)-3-methyl-1-oxobutan-2-yl)amino)-1-oxo-3-phenylpropan-2-aminium trifluoroacetate [P22L]			no activity					
(S)-1-(((S)-1-(((S)-1-carboxy-2-phenylethyl)amino)-3-methyl-1-oxobutan-2-yl)amino)-1-oxo-3-phenylpropan-2-aminium trifluoroacetate [P11L]			no activity					
(S)-2-((S)-2-amino-3-phenylpropanamido)-N-((S)-1-((4-ethylphenyl)amino)-1-oxo-3-phenylpropan-2-yl)-3-methylbutanamide [P25L]			no activity					
Benzyl 4-(((S)-1-(((S)-1-(((S)-1-((4-ethylphenyl)amino)-1-oxo-3-phenylpropan-2-yl)amino)-3-methyl-1-oxobutan-2-yl)amino)-1-oxo-3-phenylpropan-2-yl)amino)-4-oxobutanoate [P23L]			no activity					
L-phenylalanyl-L-valyl-L-phenylalanine [P18L]			no activity					
